# Patent US8846719B2, “Isoxazolo-pyridine derivatives” (Roche Palo Alto LLC, priority 2007, dated 2014)
# Biological target: human GABA A receptor α5β3γ2 (Homo sapiens (Human), UniProt P18507+P31644)
# Test: [3H]flumazenil competition binding assay, human GABA A α5β3γ2 receptors expressed in HEK293 cells
# Conditions: human receptor; displacement of [3H]flumazenil (0.5 nM); means of two determinations; read-out: hKi GABAAa5
# Method in brief: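 Competition for [3H]flumazenil binding on membranes of HEK293 cells transiently transfected with human α5β3γ2 receptors, in Krebs-tris buffer pH 7.5.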
row,Ki [nM],Structure (SMILES)
1,6.8,"Cc1onc(-c2ccccn2)c1COc1ccc(C(=O)N2CCSCC2)cn1 [Example 282, [6-(5-Methyl-3-pyridin-2-yl-isoxazol-4-ylmethoxy)-pyridin-3-yl]-thiomorpholin-4-yl-methanone]"
2,2,"COC(=O)c1ccc(OCc2c(-c3ccc(F)cn3)noc2C)nc1 [Example 286, 6-[3-(5-Fluoro-pyridin-2-yl)-5-methyl-isoxazol-4-ylmethoxy]-nicotinic acid methyl ester]"
3,19.2,"Cc1onc(-c2ccc(F)cn2)c1COc1ccc(C(=O)O)cn1 [Example 287, 6-[3-(5-Fluoro-pyridin-2-yl)-5-methyl-isoxazol-4-ylmethoxy]-nicotinic acid]"
4,1.2,"Cc1onc(-c2ccc(F)cn2)c1COc1ccc(C(=O)N2CCS(=O)(=O)CC2)cn1 [Example 293, (1,1-Dioxo-1,6-thiomorpholin-4-yl)-{6-[3-(5-fluoro-pyridin-2-yl)-5-methyl-isoxazol-4-ylmethoxy]-pyridin-3-yl}-methanone]"
5,0.3,Cc1onc(-c2ccc(F)cn2)c1COc1ccc(C(=O)NCC(F)(F)F)cn1 [Example 294]
6,4.1,"Cc1onc(-c2ccc(F)cn2)c1COc1ccc(C(=O)N2CCOCC2)cn1 [Example 296, {6-[3-(5-Fluoro-pyridin-2-yl)-5-methyl-isoxazol-4-ylmethoxy]-pyridin-3-yl}-morpholin-4-yl-methanone]"
7,1.6,"COC(=O)c1ccc(OCc2c(-c3ccc(Cl)cn3)noc2C)nc1 [Example 300, 6-[3-(5-Chloro-pyridin-2-yl)-5-methyl-isoxazol-4-ylmethoxy]-nicotinic acid methyl ester]"
8,3.8,"Cc1onc(-c2ccc(Cl)cn2)c1COc1ccc(C(=O)O)cn1 [Example 304, 6-[3-(5-Chloro-pyridin-2-yl)-5-methyl-isoxazol-4-ylmethoxy]-nicotinic acid]"
9,0.6,"Cc1onc(-c2ccc(Cl)cn2)c1COc1ccc(C(=O)N2CCS(=O)(=O)CC2)cn1 [Example 307, {6-[3-(5-Chloro-pyridin-2-yl)-5-methyl-isoxazol-4-ylmethoxy]-pyridin-3-yl}-(1,1-dioxo-1,6-thiomorpholin-4-yl)-methanone]"
10,0.6,"Cc1onc(-c2ccc(Cl)cn2)c1COc1ccc(C(=O)N2CCOCC2)cn1 [Example 309, {6-[3-(5-Chloro-pyridin-2-yl)-5-methyl-isoxazol-4-ylmethoxy]-pyridin-3-yl}-morpholin-4-yl-methanone]"
11,11.3,"COC(=O)c1ccc(OCc2c(-c3ccncn3)noc2C)nc1 [Example 312, 6-(5-Methyl-3-pyrimidin-4-yl-isoxazol-4-ylmethoxy)-nicotinic acid methyl ester]"
12,3,"Cc1onc(-c2ccncn2)c1COc1ccc(C(=O)NC(C)C)cn1 [Example 313, N-Isopropyl-6-(5-methyl-3-pyrimidin-4-yl-isoxazol-4-ylmethoxy)-nicotinamide]"
13,5.6,"Cc1onc(-c2ccncn2)c1COc1ccc(C(=O)NC2CC2)cn1 [Example 314, N-Cyclopropyl-6-(5-methyl-3-pyrimidin-4-yl-isoxazol-4-ylmethoxy)-nicotinamide]"
14,36.2,"Cc1onc(-c2ccncn2)c1COc1ccc(C(=O)N2CCOCC2)cn1 [Example 316, [6-(5-Methyl-3-pyrimidin-4-yl-isoxazol-4-ylmethoxy)-pyridin-3-yl]-morpholin-4-yl-methanone]"
15,3.1,"CCNC(=O)c1ccc(OCc2c(-c3ccncn3)noc2C)nc1 [Example 317, N-Ethyl-6-(5-methyl-3-pyrimidin-4-yl-isoxazol-4-ylmethoxy)-nicotinamide]"
16,4.8,"CNC(=O)c1ccc(OCc2c(-c3ccncn3)noc2C)nc1 [Example 318, N-Methyl-6-(5-methyl-3-pyrimidin-4-yl-isoxazol-4-ylmethoxy)-nicotinamide]"
17,20.2,"Cc1onc(-c2ccncn2)c1COc1ccc(C(=O)N2CCSCC2)cn1 [Example 319, [6-(5-Methyl-3-pyrimidin-4-yl-isoxazol-4-ylmethoxy)-pyridin-3-yl]-thiomorpholin-4-yl-methanone]"
18,6,"Cc1onc(-c2ccncn2)c1COc1ccc(C(=O)NCCO)cn1 [Example 320, N-(2-Hydroxy-ethyl)-6-(5-methyl-3-pyrimidin-4-yl-isoxazol-4-ylmethoxy)-nicotinamide]"
19,21.4,"CC(C)NC(=O)c1ccc(OCc2conc2-c2ccccc2)nc1 [Example 321, N-Isopropyl-6-(3-phenyl-isoxazol-4-ylmethoxy)-nicotinamide]"
20,17.7,"O=C(NC1CCOCC1)c1ccc(OCc2conc2-c2ccccc2)nc1 [Example 322, 6-(3-Phenyl-isoxazol-4-ylmethoxy)-N-(tetrahydro-pyran-4-yl)-nicotinamide]"
21,7.3,"CC(C)NC(=O)c1ccc(OCc2conc2-c2ccc(F)cc2)nc1 [Example 323, 6-[3-(4-Fluoro-phenyl)-isoxazol-4-ylmethoxy]-N-isopropyl-nicotinamide]"

row,Structure (SMILES),Ki [nM]
1,"Cc1onc(-c2ccccn2)c1COc1ccc(C(=O)NC(C)(C)CO)cn1 [Example 281, (2-Hydroxy-1,1-dimethyl-ethyl)-6-(5-methyl-3-pyridin-2-yl-isoxazol-4-ylmethoxy)-nicotinamide]",4
2,"Cc1onc(-c2ccccn2)c1COc1ccc(C(=O)O)cn1 [Example 283, 6-(5-Methyl-3-pyridin-2-yl-isoxazol-4-ylmethoxy)-nicotinic acid]",22.3
3,"Cc1onc(-c2ccccn2)c1COc1ccc(C(=O)NCCO)cn1 [Example 284, (2-Hydroxy-ethyl)-6-(5-methyl-3-pyridin-2-yl-isoxazol-4-ylmethoxy)-nicotinamide]",0.5
4,"COCCNC(=O)c1ccc(OCc2c(-c3ccccn3)noc2C)nc1 [Example 285, (2-Methoxy-ethyl)-6-(5-methyl-3-pyridin-2-yl-isoxazol-4-ylmethoxy)-nicotinamide]",1.1
5,"Cc1onc(-c2ccc(F)cn2)c1COc1ccc(C(=O)NC2CCOCC2)cn1 [Example 288, 6-[3-(5-Fluoro-pyridin-2-yl)-5-methyl-isoxazol-4-ylmethoxy]-(tetrahydro-pyran-4-yl)-nicotinamide]",0.4
6,"Cc1onc(-c2ccc(F)cn2)c1COc1ccc(C(=O)NC2CC2)cn1 [Example 290, Cyclopropyl-6-[3-(5-fluoro-pyridin-2-yl)-5-methyl-isoxazol-4-ylmethoxy]-nicotinamide]",0.6
7,"Cc1onc(-c2ccc(F)cn2)c1COc1ccc(C(=O)NC(C)(C)CO)cn1 [Example 291, 6-[3-(5-Fluoro-pyridin-2-yl)-5-methyl-isoxazol-4-ylmethoxy](2-hydroxy-1,1-dimethyl-ethyl)-nicotinamide]",1.2
8,"Cc1onc(-c2ccc(F)cn2)c1COc1ccc(C(=O)NCC2CC2)cn1 [Example 292, Cyclopropylmethyl-6-[3-(5-fluoro-pyridin-2-yl)-5-methyl-isoxazol-4-ylmethoxy]-nicotinamide]",0.4
9,"Cc1onc(-c2ccc(F)cn2)c1COc1ccc(C(=O)NCCO)cn1 [Example 295, 6-[3-(5-Fluoro-pyridin-2-yl)-5-methyl-isoxazol-4-ylmethoxy]-(2-hydroxy-ethyl)-nicotinamide]",0.4
10,"CCNC(=O)c1ccc(OCc2c(-c3ccc(F)cn3)noc2C)nc1 [Example 297, Ethyl-6-[3-(5-fluoro-pyridin-2-yl)-5-methyl-isoxazol-4-ylmethoxy]-nicotinamide]",0.5
11,"CNC(=O)c1ccc(OCc2c(-c3ccc(F)cn3)noc2C)nc1 [Example 298, 6-[3-(5-Fluoro-pyridin-2-yl)-5-methyl-isoxazol-4-ylmethoxy]-methyl-nicotinamide]",0.6
12,"Cc1onc(-c2ccc(F)cn2)c1COc1ccc(C(=O)N[C@@H](C)C(F)(F)F)cn1 [Example 299, 6-[3-(5-Fluoro-pyridin-2-yl)-5-methyl-isoxazol-4-ylmethoxy]-N—((S)-2,2,2-trifluoro-1-methyl-ethyl)-nicotinamide]",0.5
13,"Cc1onc(-c2ccc(Cl)cn2)c1COc1ccc(C(=O)NC2CCOCC2)cn1 [Example 301, 6-[3-(5-Chloro-pyridin-2-yl)-5-methyl-isoxazol-4-ylmethoxy]-(tetrahydro-pyran-4-yl)-nicotinamide]",0.3
14,"Cc1onc(-c2ccc(Cl)cn2)c1COc1ccc(C(=O)NC(C)C)cn1 [Example 302, 6-[3-(5-Chloro-pyridin-2-yl)-5-methyl-isoxazol-4-ylmethoxy]-isopropyl-nicotinamide]",0.3
15,"Cc1onc(-c2ccc(Cl)cn2)c1COc1ccc(C(=O)NC2CC2)cn1 [Example 303, 6-[3-(5-Chloro-pyridin-2-yl)-5-methyl-isoxazol-4-ylmethoxy]-cyclopropyl-nicotinamide]",0.3
16,"Cc1onc(-c2ccc(Cl)cn2)c1COc1ccc(C(=O)NC(C)(C)CO)cn1 [Example 305, 6-[3-(5-Chloro-pyridin-2-yl)-5-methyl-isoxazol-4-ylmethoxy]-(2-hydroxy-1,1-dimethyl-ethyl)-nicotinamide]",0.6
17,"Cc1onc(-c2ccc(Cl)cn2)c1COc1ccc(C(=O)NCC2CC2)cn1 [Example 306, 6-[3-(5-Chloro-pyridin-2-yl)-5-methyl-isoxazol-4-ylmethoxy]-cyclopropylmethyl-nicotinamide]",0.3
18,"Cc1onc(-c2ccc(Cl)cn2)c1COc1ccc(C(=O)NCC(F)(F)F)cn1 [Example 308, 6-[3-(5-Chloro-pyridin-2-yl)-5-methyl-isoxazol-4-ylmethoxy]-(2,2,2-trifluoro-ethyl)-nicotinamide]",0.2
19,"Cc1onc(-c2ccc(Cl)cn2)c1COc1ccc(C(=O)NCCO)cn1 [Example 311, 6-[3-(5-Chloro-pyridin-2-yl)-5-methyl-isoxazol-4-ylmethoxy]-(2-hydroxy-ethyl)-nicotinamide]",0.1
20,"Cc1onc(-c2ccncn2)c1COc1ccc(C(=O)NC(C)(C)CO)cn1 [Example 315, N-(2-Hydroxy-1,1-dimethyl-ethyl)-6-(5-methyl-3-pyrimidin-4-yl-isoxazol-4-ylmethoxy)-nicotinamide]",8.1
